In patent US7301020B2, “Macrolide analogs and methods for identifying same” (priority 2003, dated 2007):

B1: CapG: Ca^2+-dependent, (+)-end actin filament capping protein, cloned from mouse brain cDNA library (protein, UniProt P24452 1-352, looked up)
Macrophage-capping protein: MYTPIPQSGSPFPASVQDPGLHIWRVEKLKPVPIARESHGIFFSGDSYLVLHNGPEEASHLHLWIGQQSSRDEQGACAVLAVHLNTLLGERPVQHREVQGNESDLFMSYFPRGLKYYREGGVESAFHKTTSGARGAAIRKLYQVKGKKNIRATERPLSWDSFNTGDCFILDLGQNIFAWCGGKSNILERNKARDLALAIRDSERQGKAQVEIITDGEEPAEMIQVLGPKPALKEGNPEEDITADQTRPNAQAAALYKVSDATGQMNLTKVADSSPFASELLIPDDCFVLDNGLCAQIYIWKGRKANEKERQAALQVADGFISRMRYSPNTQVEILPQGRESPIFKQFFKNWK

Experiments:
NBT-II cells = assay: Effect of macrolides on NBT-II cells (live cell microscopy); format: cell-based, rat
Procedure: FIG. 7: Effect of KabC on NBT-II cells. NBT-II cells are imaged after 16 hours of drug treatment. KabC concentrations: (A), Control; (B), 10 nM; (C), 100 nM and (D), 1000 nM.
Cell Culture: Rat bladder NBT-II carcinoma cells and mouse NIH 3T3 fibroblast cells are maintained and treated with external drugs as described in Choidas et al (1998).
Live cell microscopy: A multi-model microscope workstation was used to image phase contrast and fluorescence images of living cells (Choidas et al, 1998). Cells are maintained at 37° in a Hepes based culture medium in a Bioptechs cell perfusion chamber (Choidas et al, 1998).

Prodan-G-actin [1] = target: T1, Prodan-G-actin (Oryctolagus cuniculus, UniProt P68135); assay: Kinetic analysis of binding to Prodan-G-actin (stopped-flow and slow phase); parameters: F-actin is purified from rabbit skeletal muscle using a standard protocol; Prodan (Acrylodan) fluorophore, chemical label on the thiol of Cys374; from tissue; host or cells: rabbit skeletal muscle; species or system rabbit
Procedure: FIG. 3: Kinetic analyses of KabC binding of Prodan labeled G-actin. (A-B). Prodan-actin (0.1 μM) and KabC, loaded into separated syringes, were rapidly mixed within ˜1 msec dead-time. The concentrations of KabC were 0.0 μM (a), 1.0 μM (b), 1.5 μM (c), 2.0 μM (d) and 2.5 μM (data not shown), respectively. The decreases in emission intensity were well fitted with single exponential functions to determine the observed rate, kobs. The observed rates are plotted as a function of the [KabC] in panel (B).
Kinetic analysis of binding reactions. The kinetics of the KabC interaction with Prodan-actin is determined, using an Applied Photophysics SX.18MV Stopped-flow spectrometer, by following the decrease in the emission intensity of Prodan-actin at 25° C. Prodan was excited at 385 nm and emission was collected with a 470 nm (+/−5 nm) band-pass filter. In all cases the decrease in emission intensity was best fit with a single exponential function, which was then used to determine the observed rate, kobs. Kinetic constants of on rate (kon) and off rate (koff) were calculated according to the following equation: kobs=kon[KabC]+koff. The kinetics of the slower binding step observed in the interaction of KabC with Prodan-G-actin interaction is measured by measuring the ratio of fluorescence signals at 465 nm and 530 nm. The decay of this ratio is fit using a single exponential rate.

Prodan-G-actin [2] = target: T1, Prodan-G-actin; assay: Competition-binding assay with GS1 and CapG on Prodan-G-actin; parameters: F-actin is purified from rabbit skeletal muscle using a standard protocol; from tissue; host or cells: actin from rabbit skeletal muscle; CapG and GS1 expressed in E. coli M15; species or system rabbit
Procedure: FIG. 4: (A) CapG: (a), Prodan-G-actin (100 nM), (b), Prodan-G-actin-CapG; (c), same as (b) in the presence of 0.2 μM KabC; (B); GS1: (a), Prodan-G-actin 100 nM; (b), Prodan-G-actin-GS1; (c), same as (b) in the presence of 0.2 μM KabC.
Characterization of actin binding proteins: The actin-binding properties of the ABPs used in this study are evaluated from changes in the fluorescence emission spectrum of Prodan-actin and actin polymerization assays as described by Marriott et al (1988).
Trisoxazolemacrolides specifically compete with GS1 for the (+)-end binding site on actin. Gelsolin, a monomeric 80 kD cytoskeleton protein composed of six domains interacts with actin filaments in a complex, Ca^2+-dependent manner (Janmey et al, 1985; Burtnick et al, 1997). Gelsolin exerts two major effects once bound to an actin filament: first it severs the filament and second it remains tightly bound to the severed (+)-end and serves to block, or cap, further growth. […] Structural analyses of G-actin complexes with GS1 (McLaughlin et al, 1993) and KabC show these unrelated molecules bind to G-actin through common contact sites that include a patch of hydrophobic residues on the surface between sub-domains 1 and 3 and within the cleft that forms between the interface of sub-domains 1 and 3 (McLaughlin et al, 1993;). GS1 binding to Prodan-G-actin shifts the average energy of the fluorescence emission to the red and is accompanied by a decrease in the quantum yield (FIG. 4A) but not to the extent seen in the KabC-G-actin complex (FIG. 2).
Trisoxazolemacrolides specifically compete with CapG for the (+)-end binding site on actin. CapG, a Ca^2+-dependent, (+)-end actin filament capping protein, is found at high levels in macrophage cells where it regulates membrane ruffling and cell protrusions associated with phagocytosis and motility (Botelho et. al., 2000). […] The Ca^2+-dependent binding of CapG to Prodan-G-actin is accompanied by a dramatic blue-shift in the emission spectrum and an increase in quantum yield (FIG. 4B, curve b). The difference in fluorescence emission spectra between free and CapG-bound Prodan-G-actin is used to quantify the parameters for this binding reaction. The G-actin-CapG complex exists as a 1:1 complex and has a dissociation constant of 100 nM (data not shown). […] This conclusion is consistent with a comparison of high-resolution structures of G-actin with GS1 and KabC and a preliminary analysis of a 2.8 Angstrom structure of a CapG mutant (Vorobiev et al, PDB database, 2002). […] However the emission properties of the CapG-Prodan-G-actin complex are unaffected by the binding of LatA, DNAse and thymosin β4 (Tβ4), which is consistent with some structural data showing that these sequestering molecules bind closer to the ATP pocket and DNAse binding loop (Kabsch et al, 1990).

Prodan-labeled G-actin = target: T2, Prodan-labeled G-actin (Oryctolagus cuniculus, UniProt P68135); assay: Prodan-G-actin titration: binding stoichiometry and dissociation constant; parameters: species or system rabbit; conditions: Prodan-G-actin titration; read-out: dissociation constant of G-actin complex
T2 construct: F-actin is purified from rabbit skeletal muscle using a standard protocol; Prodan (Acrylodan) fluorophore, chemical label on the thiol of Cys374; from tissue; host or cells: rabbit skeletal muscle
Procedure: FIG. 2: (A), Stoichiometric binding of Prodan-labeled G-actin (1 μM) in G-buffer with KabC at final concentrations of in μm, a: 0.0; b: 0.1; c: 0.2; d: 0.3; e: 0.4; f: 0.5; g: 0.6; h: 0.7; i: 0.8; j: 0.9; k: 1.0; l: 1.1; m: 1.2; n: 1.5 (B), Plot of the integrated intensity in (A) against [KabC] yields a binding stoichiometry of 1:1.
Prodan-actin: Actin is labeled with the thiol probe, Acrylodan (Molecular Probes, Eugene, Oreg.) using a standard protocol (Marriott et al, 1988). Rabbit muscle G-actin is labeled with the thiol reactive, environmentally sensitive probe, Acrylodan, according to the inventor's earlier publication (Marriott et al, 1988). […]
Determination of the binding stoichiometry and dissociation constants for G-actin complexes with ABPs and macrolide drugs: The change in the quantum yield and/or emission energy of Prodan-actin is used to quantify the interaction of CapG and macrolides with G-actin. The stoichiometry of the CapG-G-actin and macrolide-G-actin complex is determined by titrating Prodan-G-actin at 1 μM with increasing amounts of CapG or the macrolide from 0.1^−10 μM. […] The equilibrium binding constant is determined by titrating a constant amount of Prodan labeled G-actin at 0.05˜0.1 μM in G- or F-buffer with incrementally increasing amounts of the macrolide or CapG over a range of 10 nM to 10 μM. […]

Row | Molecule | cytotoxic activity on NBT II epithelia cells (NBT-II cells) | effect of binding on emission properties of CapG-Prodan-G-actin complex (Prodan-G-actin [2]) | further results
1 | COC(CC1OC(=O)CC(O)C/C=C/C(=O)C(C)C(OC)c2coc(n2)-c2coc(n2)-c2coc(n2)/C=C/CCC1C)C(C)CCC(=O)C(C)C(C/C=C/N(C)C=O)OC (stereo not drawn) [Hal, halichondramide] | concentration dependent cytotoxic activity |  | binding steps in reaction with G-actin (Prodan-G-actin [1]): 1st and 2nd-binding steps are common
2 | CO[C@H]1C[C@H](CC[C@H](C)[C@H](O)[C@H](C)[C@H]2OC(=O)/C=C/C(C)=C/C[C@H](O)C[C@@H]3C=CC[C@@H](C[C@H](OC)[C@@H](C)[C@@H](O)C[C@@H](O)[C@H](C)[C@@H]([C@@H](C)[C@@H](O)[C@@H](C)CC[C@H]4C[C@H](OC)C[C@H](C)O4)OC(=O)/C=C/C(C)=C/C[C@H](O)C[C@@H]4C=CC[C@@H](C[C@H](OC)[C@@H](C)[C@@H](O)C[C@@H](O)[C@@H]2C)O4)O3)O[C@@H](C)C1 [SwiA, Swinholide A] | concentration dependent cytotoxic activity |  | binding site on actin by competition-binding assay (Prodan-G-actin [2]): bind to the same site on actin as KabC, CapG and GS1
3 | C/C1=C/C(=O)O[C@@H]2C[C@@H](CC[C@H](C)/C=C\C=C\CC1)O[C@@](O)([C@@H]1CSC(=O)N1)C2 [LatA] |  | unaffected | 
4 | Ulapualide A [UlaA] | concentration dependent cytotoxic activity |  | binding steps in reaction with G-actin (Prodan-G-actin [1]): 1st and 2nd-binding steps are common
5 | DNAse |  | unaffected | 
6 | thymosin β4: actin monomer sequestering protein |  | unaffected | 
7 | CO[C@H]1C[C@H](CC[C@H](C)[C@H](O)[C@H](C)[C@H]2OC(=O)/C(C)=C/C[C@H](O)C[C@@H]3C=CC[C@@H](C[C@H](OC)[C@@H](C)[C@@H](O)C[C@@H](O)[C@H](C)[C@@H]([C@@H](C)[C@@H](O)[C@@H](C)CC[C@H]4C[C@H](OC)C[C@H](C)O4)OC(=O)/C(C)=C/C[C@H](O)C[C@@H]4C=CC[C@@H](C[C@H](OC)[C@@H](C)[C@@H](O)C[C@@H](O)[C@@H]2C)O4)O3)O[C@@H](C)C1 [MisA, misakinolide A] | concentration dependent cytotoxic activity |  | binding site on actin by competition-binding assay (Prodan-G-actin [2]): bind to the same site on actin as KabC, CapG and GS1
8 | B1 |  |  | Kd (Prodan-labeled G-actin): 100 nM
